Reference: patent US10751301B2, “Methods for inhibiting conversion of choline to trimethylamine (TMA)” (The Procter & Gamble Company, priority 2017, dated 2020)
Read-outs that look alike come from different tables or passages of the source. One block for each compound: values may come before it.

Experiments:
[1] = tested on: human fecal polymicrobial community; test: Human fecal polymicrobial incubation with d9-choline, TMA inhibition (Example 3); assay type: cell-based
C57b1/6 female mice = test: Rapid preclinical method, d9-choline challenge in mice (Example 6); assay type: in vivo; conditions: for Calculated EC50 (mg/kg) compared to Vehicle Control: mice, oral gavage with 2 mg d9-Choline, Time 3 hr
[2] = biological target: recombinant P. mirabilis Cut C/D lysate (Proteus mirabilis, UniProt B4EYG1); test: biochemical
[3] = biological target: recombinant D. alaskensis Cut C/D lysate (Oleidesulfovibrio alaskensis, UniProt Q30W70); test: biochemical
Sequence of recombinant D. alaskensis Cut C/D lysate (Q30W70 whole entry): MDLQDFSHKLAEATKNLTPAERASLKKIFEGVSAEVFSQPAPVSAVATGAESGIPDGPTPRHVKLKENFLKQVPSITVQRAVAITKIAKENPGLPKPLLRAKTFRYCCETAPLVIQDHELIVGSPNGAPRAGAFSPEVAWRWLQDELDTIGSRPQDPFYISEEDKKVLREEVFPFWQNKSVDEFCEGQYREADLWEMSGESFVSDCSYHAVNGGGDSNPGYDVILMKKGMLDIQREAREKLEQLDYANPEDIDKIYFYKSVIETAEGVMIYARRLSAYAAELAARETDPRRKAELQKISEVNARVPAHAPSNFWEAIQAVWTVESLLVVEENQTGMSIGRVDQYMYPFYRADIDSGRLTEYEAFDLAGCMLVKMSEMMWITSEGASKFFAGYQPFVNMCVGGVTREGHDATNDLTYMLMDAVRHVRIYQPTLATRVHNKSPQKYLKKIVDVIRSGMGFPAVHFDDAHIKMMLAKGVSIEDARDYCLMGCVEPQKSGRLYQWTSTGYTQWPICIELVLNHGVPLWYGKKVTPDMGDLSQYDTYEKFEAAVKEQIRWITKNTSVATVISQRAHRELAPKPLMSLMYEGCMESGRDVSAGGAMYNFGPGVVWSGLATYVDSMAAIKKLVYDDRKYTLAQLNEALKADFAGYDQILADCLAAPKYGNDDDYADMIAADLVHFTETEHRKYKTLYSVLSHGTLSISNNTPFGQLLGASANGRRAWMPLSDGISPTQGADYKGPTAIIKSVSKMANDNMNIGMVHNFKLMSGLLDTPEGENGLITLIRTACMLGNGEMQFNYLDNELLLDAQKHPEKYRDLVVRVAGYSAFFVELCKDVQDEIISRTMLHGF

[4] = tested on: whole cell wild-type P. mirabilis; test: Inhibition of conversion of choline to TMA by whole cell wild-type P. mirabilis (Example 5); assay type: cell-based
[5] = tested on: Proteus mirabilis 29906 (Pm) lysate; test: Inhibition of formation of TMA from choline in Proteus mirabilis lysate (Example 2); assay type: biochemical; conditions: read-out: TMA Inhibition (IC50, mol/L)
mice (C57b1/6) = test: Preclinical screening method, plasma TMAO in mice on 1% choline added diet (Example 4); assay type: in vivo; conditions: oral gavage once daily, 310 mg/kg/day
[6] = tested on: fecal polymicrobial community; conditions: male, human
[7] = Proteus mirabilis; read-out: EC50 (mol/L) whole cell wild-type P. mirabilis
[8] = Homo sapiens, 0.2% fecal slurry, 50 μM d9-choline chloride, 20 hours, 37° C., anaerobic, ND=not detectable, read-out: Example 3, TMA Inhibition (IC50, mol/L)
[9] = Pm lysate 1.5 mg/mL protein, 50 μM d9-choline chloride, 37° C. two hours

Structure (SMILES): CC[S+](C)CCO.[I-] (stereo not shown) [Methylethylthioethanol iodide]
IC50 ([1]; Homo sapiens, read-out: IC50, inhibits the conversion of choline to TMA, assay of Example 3): 8.89 µM
EC50, inhibits the conversion of choline to TMA, assay of EXAMPLE 6 (C57b1/6 female mice; time not given): 0.8 mg/kg

Structure (SMILES): C=C(C)C[S+](C)CCO (stereo not shown) [ID 9, 2-hydroxyethyl-methyl-(2-methylallyl)sulfonium]
IC50 [2]: 5.9 µM
IC50 [3]: 0.65 µM
EC50 [4, 7]: 23 µM

IC50 [1, 8]: 1.64 µM
IC50 [5, 9]: 302 µM
Structure (SMILES): C[S+](CCO)c1ccccc1 (stereo not shown) [compound 16, Phenyl-(2-hydroxyethyl)-methyl-sulfonium]

Structure (SMILES): C#CC[S+](C)C [compound 20]
IC50 [1, 8]: 0.108 µM
IC50 [5, 9]: 0.01 µM

Structure (SMILES): C=CC[S+](C)CCO (stereo not shown) [compound 1, Allyl-(2-hydroxyethyl)-methyl-sulfonium]
IC50 [1, 8]: 41.7 µM
IC50 [5, 9]: 0.0457 µM

IC50 [1, 8]: 101 µM
IC50 [5, 9]: 3.8 µM
Structure (SMILES): C=CC[S+]([O-])CCO (stereo not shown) [compound 22, Allyl-(2-hydroxyethyl)-oxido-sulfonium]

IC50 [1, 8]: 0.557 µM
IC50 [5, 9]: 29.5 µM
Structure (SMILES): CCCC[S+](C)CCO (stereo not shown) [compound 14, Butyl-(2-hydroxyethyl)-methyl-sulfonium]

Structure (SMILES): C[S+](CCO)CC(=O)O (stereo not shown) [ID 15, 2-Acetic acid-(2-hydroxyethyl)-methyl-sulfonium]
IC50 ([2]; read-out: IC50 (mol/L) recombinant P. mirabilis Cut C/D lysate): 0.43 µM
IC50 ([3]; read-out: IC50 (mol/L) recombinant D. alaskensis Cut C/D lysate): 0.045 µM
EC50 ([4]; read-out: EC50 (mol/L) whole cell wild-type P. mirabilis): 0.062 µM
Remaining plasma TMAO as a percentage of plasma TMAO in same day vehicle control (% of control remaining) (mice (C57b1/6); Days 5): 69%

IC50 [5, 9]: 15.8 µM
Structure (SMILES): C=CC[S+]1CCOCC1 [compound 7, 4-allyl-1,4-oxathian-4-ium]

Structure (SMILES): C#CC[S+](C)CCO (stereo not shown) [ID 2, Propargyl-(2-hydroxyethyl)-methyl-sulfonium]
IC50 [2]: 0.047 µM
IC50 [3]: 0.065 µM
EC50 [4, 7]: 0.93 µM
Calculated EC50 (mg/kg) compared to Vehicle Control (C57b1/6 female mice): 85.50 mg/kg

Structure (SMILES): C#CC[S+](C)CCO (stereo not shown) [compound 2, Propargyl-(2-hydroxyethyl)-methyl-sulfonium]
IC50 [1, 8]: 2.98 µM
IC50 [5, 9]: 0.038 µM

Structure (SMILES): C/C=C/C[S+](C)CCO (stereo not shown) [compound 8, [(E)-but-2-enyl]-(2-hydroxyethyl)-methyl-sulfonium]
IC50 [5, 9]: 0.0151 µM

Structure (SMILES): C/C=C/C[S+](C)CCO (stereo not shown) [ID 8, [(E)-but-2-enyl]-(2-hydroxyethyl)-methyl-sulfonium]
IC50 [2]: 1.5 µM
IC50 [3]: 0.27 µM
EC50 [4, 7]: 9.5 µM
Remaining plasma TMAO as a percentage of plasma TMAO in same day vehicle control (% of control remaining) (mice (C57b1/6); Days 1): 62%

IC50 [5, 9]: 55 µM
Structure (SMILES): C#CC[S+]1CCOCC1 [compound 24, 4-prop-2-ynyl-1,4-oxathian-4-ium]

Structure (SMILES): C[S+](CI)CCO (stereo not shown) [compound 6]
Lowest concentration tested at which cell viability was 10% or lower [6]: 250 µM
IC50 [5]: 2.04 µM

IC50 [1, 8]: 51.3 µM
IC50 [5, 9]: 398 µM
Structure (SMILES): CCCCC[S+](C)CCO (stereo not shown) [compound 3, Pentyl-(2-hydroxyethyl)-methyl-sulfonium]

IC50 [5, 9]: 200 µM
Structure (SMILES): C#CC[S+](CCO)c1ccccc1 (stereo not shown) [compound 5, (2-hydroxyethyl)(phenyl)(prop-2-yn-1-yl)sulfonium]

Structure (SMILES): C=CC[S+](C)C [compound 21]
IC50 [1, 8]: 1.46 µM
IC50 [5, 9]: 0.0661 µM

Structure (SMILES): C=C(C)C[S+](C)CCO (stereo not shown) [compound 9, 2-hydroxyethyl-methyl-(2-methylallyl)sulfonium]
IC50 [5, 9]: 166 µM

Structure (SMILES): OCC[S+]1CCOCC1 [compound 23, 2-(1,4-oxathian-4-ium-4-yl)ethanol]
IC50 [5]: 10.7 µM

Structure (SMILES): [O-][S+]1CCOCC1 [compound 19, 4-oxido-1,4-oxathian-4-ium]
IC50 ([1]; read-out: Example 3, TMA Inhibition (IC50, mol/L)): 24.3 µM
IC50 [5]: 234 µM

IC50 [1, 8]: 12.7 µM
IC50 [5, 9]: 44.7 µM
Structure (SMILES): C[S+](CCO)Cc1ccccc1 (stereo not shown) [compound 13]

Structure (SMILES): C#CC[S+](C)C [ID 20, Dimethyl(prop-2-ynyl)sulfonium]
IC50 [2]: 0.013 µM
IC50 [3]: 0.068 µM
EC50 [4, 7]: 75 µM
Calculated EC50 (mg/kg) compared to Vehicle Control (C57b1/6 female mice): 9.00 mg/kg
Remaining plasma TMAO as a percentage of plasma TMAO in same day vehicle control (% of control remaining) (mice (C57b1/6); Days 1): 0.35%

IC50 [1, 8]: 612 µM
IC50 [5, 9]: 58.9 µM
Structure (SMILES): CCCCCC[S+](C)CCO (stereo not shown) [compound 4, Hexyl-(2-hydroxyethyl)-methyl-sulfonium]

IC50 [1, 8]: 760 µM
IC50 [5, 9]: 190 µM
Structure (SMILES): CC[S+](CCO)c1ccccc1 (stereo not shown) [compound 17, Phenyl-(2-hydroxyethyl)-ethyl-sulfonium]

Structure (SMILES): C[S+](CI)CCO (stereo not shown) [ID 6, Iodomethyl-(2-hydroxyethyl)-methyl-sulfonium]
IC50 [2]: 0.36 µM
IC50 [3]: 3.7 µM
EC50 ([4]; Proteus mirabilis, read-out: EC50 (mol/L) whole cell wild-type P. mirabilis): 0.2 µM
Calculated EC50 (mg/kg) compared to Vehicle Control (C57b1/6 female mice): 1.10 mg/kg
Remaining plasma TMAO as a percentage of plasma TMAO in same day vehicle control (% of control remaining) (mice (C57b1/6); Days 1): 3%

Structure (SMILES): C=CC[S+](C)CCO (stereo not shown) [ID 1, Allyl-(2-hydroxyethyl)-methyl-sulfonium]
IC50 [2]: 0.0982 µM
IC50 [3]: 0.307 µM
EC50 [4, 7]: 0.073 µM
Calculated EC50 (mg/kg) compared to Vehicle Control (C57b1/6 female mice): 0.87 mg/kg
Remaining plasma TMAO as a percentage of plasma TMAO in same day vehicle control (% of control remaining) (mice (C57b1/6); Days 1): 18%

IC50 [1, 8]: 22 µM
IC50 [5, 9]: 129 µM
Structure (SMILES): [O-][S+](CCO)c1ccccc1 (stereo not shown) [compound 18, 2-hydroxyethyl-oxido-phenyl-sulfonium]

IC50 [5, 9]: 0.251 µM
Structure (SMILES): C[S+](C/C=C/Br)CCO (stereo not shown) [compound 10, [(E)-3-bromoallyl]-(2-hydroxyethyl)-methyl-sulfonium]

Structure (SMILES): C[S+](CCO)CCBr (stereo not shown) [compound 11, (2-bromoethyl)(2-hydroxyethyl)methylsulfonium]
IC50 ([1]; Homo sapiens, 20 h, read-out: Example 3, TMA Inhibition (IC50, mol/L)): 3.05 µM
IC50 [5]: 0.219 µM

Structure (SMILES): C=CC[S+](C)C [ID 21, Allyl(dimethyl)sulfonium]
IC50 [2]: 0.25 µM
IC50 [3]: 0.41 µM
EC50 [4, 7]: 0.16 µM
Calculated EC50 (mg/kg) compared to Vehicle Control (C57b1/6 female mice): 0.19 mg/kg
